{"source": "patent US10596145B2", "about": "“Heterocyclic flavone derivatives, compositions, and methods related thereto” (Emory University, priority 2012, dated 2020)", "key": {"TrkB [1]": {"biological_target": "T1, TrkB (Rattus norvegicus, UniProt Q63604)", "T1 construct": "endogenous in cells; host or cells: primary cortical neurons from E17 rat embryos", "T1 sequence (Q63604 32-821)": "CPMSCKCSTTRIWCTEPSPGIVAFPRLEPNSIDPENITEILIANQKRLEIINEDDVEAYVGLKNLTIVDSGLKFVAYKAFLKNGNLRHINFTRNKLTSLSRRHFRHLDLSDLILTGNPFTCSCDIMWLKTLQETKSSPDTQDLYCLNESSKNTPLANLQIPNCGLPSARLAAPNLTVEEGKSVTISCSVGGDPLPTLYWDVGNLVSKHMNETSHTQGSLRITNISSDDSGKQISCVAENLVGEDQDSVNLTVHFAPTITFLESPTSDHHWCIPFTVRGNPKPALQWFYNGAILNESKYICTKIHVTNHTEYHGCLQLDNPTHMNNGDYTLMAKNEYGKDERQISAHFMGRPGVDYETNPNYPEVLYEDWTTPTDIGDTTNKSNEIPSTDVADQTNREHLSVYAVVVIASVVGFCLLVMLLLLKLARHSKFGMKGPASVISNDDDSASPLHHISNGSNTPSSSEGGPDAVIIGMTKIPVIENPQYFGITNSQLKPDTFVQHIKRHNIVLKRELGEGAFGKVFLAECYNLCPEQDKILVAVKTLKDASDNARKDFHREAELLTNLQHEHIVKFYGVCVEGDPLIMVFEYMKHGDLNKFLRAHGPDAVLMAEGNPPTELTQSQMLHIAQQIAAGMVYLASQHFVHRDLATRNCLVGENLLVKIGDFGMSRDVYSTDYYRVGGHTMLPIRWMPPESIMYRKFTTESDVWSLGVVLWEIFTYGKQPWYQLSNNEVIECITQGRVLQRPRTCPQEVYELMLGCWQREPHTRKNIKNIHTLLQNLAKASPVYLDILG", "assay": "TrkB activation in primary cortical neurons (immunoblotting)", "format": "cell-based", "conditions": "500 nM, 15 min", "description": "Primary cortical cultures from E17 rat embryos were treated with 500 nM of various synthetic flavone derivatives for 15 min. The cell lysates (20 μg) were analyzed by the immunoblotting.\nRat primary neurons were treated with 500 nM various indicated compounds from 15 min. The neuronal lysates ([…]) were analyzed with various antibodies.\n500 nM of different synthetic compounds were added to DIV 7 neurons for 15 min. The cell lysates were analyzed by immunoblotting with indicated p-Akt 473 antibodies.\nReplacing the 3′-dimethylamino group or 4′-morpholino group was tested for TrkB agonistic activity. To compare the TrkB activation by these compounds, primary cortical cultures were prepared and treated them with 500 nM of various compounds for 15 min and collected the cell lysates. […] The p-Akt ELISA analysis results were similar to the TrkB activation pattern (FIG. 2B, lower panel)."}, "TrkB [2]": {"biological_target": "T2, TrkB (Mus musculus, UniProt P15209)", "T2 construct": "from tissue; host or cells: mouse brain (hippocampus, cortex), C57BL/6", "T2 sequence (P15209 32-821)": "as the sequence (Q63604 32-821) above, with M3T, T9S, T10A, I32V, K63R, G84S, T153M, I185L, T394S, N770S counted along it", "assay": "TrkB phosphorylation in mouse brain after oral administration (immunoblotting, immunohistochemistry)", "format": "in vivo", "description": "One mg/kg of various indicated compounds were orally administrated into C57 BL/6J mice and TrkB phosphorylation and its downstream signaling cascades including Akt and MAPK in the hippocampus of mouse brain were analyzed by immunoblotting at 4 h. […] The downstream p-Akt and p-MAPK activity coupled to the TrkB activation patterns.\nTime course assay with 4′-dimethylamino-7,8-imidazole flavone. One mg/kg of compound (i) and compound (m) were orally administrated into C57 BL/6J mice and TrkB phosphorylation and its downstream signaling cascades including Akt in mouse brain were analyzed by immunoblotting at various time points. TrkB activation by compound m peaked at 4 h, whereas the maximal TrkB activation by compound i in mouse brain occurred at 1-2 h. Arrows indicate the p-TrkB in mature glycosylated or unglycosylated forms (top panels). The downstream Akt activation pattern tightly correlated with the upstream TrkB activation.\n(§1) Male C57BL/6 mice aged of two months were administrated orally with 4′-DMA-7,8-DHF derivatives at a single dose of 1 mg/kg for 4 h. The control mice were injected with saline. The mice were sacrificed and brains were homogenated and ultracentrafuged. The supernatant (40 μg) was employed for SDS-PAGE and immunoblotting analysis with indicated antibodies, respectively. Male C57BL/6 mice aged of two months were administrated orally with compound (i) or (m) at the dose of 5 mg/kg/day each and compound o or p at the dose of 2.5 mg/kg/day each for 21 days. BrdU (100 mg/kg) was i. p. injected two hours before the TrkB agonist treated animals were sacrificed and the hippocampal section lysates were analyzed by immunoblotting with p-TrkB and total TrkB antibodies, p-AKT ELISA.\nBrain tissues were fixed in 4% paraformaldehyde overnight followed by paraffin embedding. Sections of 6 μm were cut. For immunohistochemical staining, brain sections were deparaffinized in xylene and rehydrated in graded alcohols. Endogenous peroxidase activity was blocked by 3% hydrogen peroxide for 5 min and all slides were boiled in 10 mM sodium citrate buffer (pH 6.0) for 10 min. Phosphorylated TrkB 816 and TrkB were detected using specific antibodies. Paraffin section were deparaffinized in xylene and rehydrated gradient ethanol solution. Samples were boiled in 10 mM sodium citrate buffer for 20 min for antigen retrieval purpose. Brain sections were incubated with anti-TrkB (BD Biosciences, San Jose, Calif.) 1:50, p-TrkB 1:300 dilution. Secondary antibody was applied using anti-rabbit-Alexa 594 (red), anti-mouse-fluorescein isothiocyanate (FITC) (green). DAPI (blue) was used for nuclear staining."}, "Akt": {"tested_on": "Akt", "assay": "Downstream Akt activation in mouse brain (p-Akt immunoblotting, p-Akt 473 ELISA)", "format": "in vivo", "conditions": "1 mg/kg oral", "description": "PathScan Phospho-Akt1 (Ser473) Sandwich ELISA kit was purchased from Cell Signaling (Cat. #7160). 100 μl sample in sample diluent (supplied in the kit) was added to each well and incubated overnight at 4° C. After 4× wash with 200 ul wash buffer (supplied in the kit), 100 ul/well detection antibody was added and incubated for 1 hour at 37° C. After 4× wash, 100 μl of HRP-linked secondary antibody (supplied in the kit) was added and incubated for 30 minutes at 37° C. After a final wash, 100 μl of TMB substrate was added to each well and incubated for 10 minutes at 37° C. The reaction was stopped by adding 100 μl/well stop solution. Record the values of each well using microplate reader at 450 nm and 650 nm. The optical density was determined by the subtraction of the reading at 650 nm from the reading s at 450 nm.\nas §1"}, "C57BL/6J mice [3]": {"tested_on": "C57BL/6J mice", "assay": "Locomotor activity assay", "format": "in vivo, mouse", "conditions": "5 mg/kg oral, 21 days, tested at day 22", "description": "The above drug-treated mice were subjected locomotor activity at day 22. […] Data are presented as mean±SEM.\nLocomotor activity was assessed using an automated system (San Diego Instruments, La Jolla, Calif., USA) with photobeams that recorded ambulations (consecutive beam breaks). Drug-treated mice were placed in the locomotor chambers, and their activity was recorded for 2 h with 30 min interval."}, "TrkA": {"biological_target": "T3, TrkA (Mus musculus, UniProt Q3UFB7)", "T3 construct": "from tissue; host or cells: mouse brain lysates of chronically treated C57BL/6J mice", "T3 sequence (Q3UFB7 34-799)": "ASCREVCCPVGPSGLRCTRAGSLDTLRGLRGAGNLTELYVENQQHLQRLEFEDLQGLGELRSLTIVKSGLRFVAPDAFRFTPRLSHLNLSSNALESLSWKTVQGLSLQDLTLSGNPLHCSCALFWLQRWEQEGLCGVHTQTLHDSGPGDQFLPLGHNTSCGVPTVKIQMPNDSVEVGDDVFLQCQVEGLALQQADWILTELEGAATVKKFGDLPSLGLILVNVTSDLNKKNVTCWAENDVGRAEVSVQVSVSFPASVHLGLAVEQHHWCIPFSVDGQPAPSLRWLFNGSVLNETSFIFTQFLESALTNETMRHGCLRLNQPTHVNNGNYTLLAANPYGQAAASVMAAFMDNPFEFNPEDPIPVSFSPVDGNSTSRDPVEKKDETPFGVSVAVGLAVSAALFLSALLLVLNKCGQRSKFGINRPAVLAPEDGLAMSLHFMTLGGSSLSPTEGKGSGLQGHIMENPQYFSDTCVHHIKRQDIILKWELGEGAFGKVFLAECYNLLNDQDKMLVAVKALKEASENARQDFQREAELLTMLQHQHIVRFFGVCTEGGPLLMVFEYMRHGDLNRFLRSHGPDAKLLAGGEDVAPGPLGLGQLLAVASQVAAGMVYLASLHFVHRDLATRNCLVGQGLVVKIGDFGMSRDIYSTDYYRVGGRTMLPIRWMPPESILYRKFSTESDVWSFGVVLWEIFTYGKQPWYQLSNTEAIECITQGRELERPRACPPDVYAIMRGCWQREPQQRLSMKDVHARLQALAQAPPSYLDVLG", "assay": "TrkA activation in mouse brain (anti-p-TrkA 794 immunoblotting)", "format": "in vivo", "conditions": "5 mg/kg/day oral, chronically treated mice", "description": "The brain lysates from above chronically treated mice were analyzed by immunoblotting with anti-p-TrkA 794 and p-TrkB 816.\nas §1"}, "C57BL/6J mice [4]": {"tested_on": "C57BL/6J mice", "assay": "Forced swim test", "format": "in vivo, mouse", "conditions": "5 mg/kg oral once a day, 3 weeks", "description": "Male C57BL/6J mice (6 mice/group) were orally administrated by gavage with 5 mg/kg compound (m) or compound (i) and vehicle solvent saline for 21 days and subjected to a forced swim test (6 min, immobility recorded in the last 4 min). Data are presented as mean±SEM. (n=6, ***P<0.0001 vs vehicle, Student t-test).\nForced swim test. Male C57BL/6J mice (8 mice/group) were orally administrated by gavage with 2.5 mg/kg compound o or compound p and vehicle solvent saline for 21 days and subjected to a forced swim test (6 min, immobility recorded in the last 4 min). […] Data are presented as mean±SEM.\nAdult male mice (2-3 months old) were randomly submitted to a forced swim test without a preswim. Test compounds were orally administrated by gavage for 21 days. The mice were allowed to adapt to the test room for 2 days. The mice were placed in a clear glass cylinder with a diameter of 16 cm, half-filled with clear water at 24° C."}}, "note": "Entries after “also recorded” stand apart in the source; their conditions may differ."}
{"smiles": "CN(C)c1ccc(-c2cc(=O)c3ccc4nc[nH]c4c3o2)cc1", "note": "[compound m, 8-(4-(dimethylamino)phenyl)chromeno[7,8-d]imidazol-6(1H)-one]", "values": [{"measurement": "TrkB activation (p-TrkB immunoblotting)", "setting": "TrkB [1]", "result": "stronger effect in triggering TrkB activation than compound 4′-DMA-7,8-DHF"}, {"measurement": "TrkB activation (p-TrkB immunoblotting)", "setting": "TrkB [1]; listed as 4′-Dimethylamino-7,8-imidazole flavone", "result": "stronger TrkB stimulatory activity than compound a"}, {"measurement": "TrkB activation in mouse brain", "setting": "TrkB [2]; 1 mg/kg oral, hippocampus, at 4 h", "result": "robustly activated TrkB; also recorded: strongest TrkB stimulatory effect"}, {"measurement": "time at which TrkB activation fades away", "setting": "TrkB [2]; 1 mg/kg oral, time course", "result": 16, "unit": "h"}, {"measurement": "time of peak TrkB activation in mouse brain", "setting": "TrkB [2]; 1 mg/kg oral, time course", "result": 4, "unit": "h"}, {"measurement": "TrkB phosphorylation after chronic treatment", "setting": "TrkB [2]; 5 mg/kg/day oral, 3 weeks, cortex and hippocampus", "result": "escalated TrkB phosphorylation; also recorded: stronger effect than compound i"}, {"measurement": "downstream p-Akt and p-MAPK signalings", "setting": "Akt; at 4 h", "result": "strongly activated"}, {"measurement": "p-Akt signal elevation compared to the control at peak", "setting": "Akt; at 8 h", "result": "about 250%"}, {"measurement": "time of peak p-Akt activation (p-Akt ELISA)", "setting": "Akt; time course", "result": 8, "unit": "h"}, {"measurement": "locomotor activity", "setting": "C57BL/6J mice [3]", "result": "highly augmented the locomotor activity; also recorded: substantially augmented locomoter activity; also recorded: significantly increased the locomotor activity"}, {"measurement": "TrkA activation in mouse brain", "setting": "TrkA", "result": "not TrkA"}, {"measurement": "immobility in forced swim test", "setting": "C57BL/6J mice [4]", "result": "decreased the immobility in FST; also recorded: significantly reduced the immobility; also recorded: more robust than that of compound i"}]}
